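Briefly, cells in 96-well plates were exposed to five compound concentrations for 48 h, and endpoints were estimated by linear interpolation. The concentration for full growth arrest is given as TGI.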
Legend:
Experiment in all cases: NCI anticancer screen, dose series, 48 h
MALME-3M melanoma = system: MALME-3M melanoma
RXF 393 renal = system: RXF 393 renal
A498 renal = system: A498 renal
COLO 205 colon = system: COLO 205 colon
KM20L2 colon = system: KM20L2 colon
EKVX NSCLC = system: EKVX NSCLC
SK-MEL-5 melanoma = system: SK-MEL-5 melanoma
DLD-1 colon = system: DLD-1 colon
HCC-2998 colon = system: HCC-2998 colon
HT29 colon = system: HT29 colon
SF-295 CNS = system: SF-295 CNS
HOP-62 NSCLC = system: HOP-62 NSCLC
SR leukemia = system: SR leukemia
HCT-15 colon = system: HCT-15 colon
K-562 leukemia = system: K-562 leukemia
NCI-H226 lung = system: NCI-H226 lung
IGROV1 ovarian = system: IGROV1 ovarian
SNB-19 CNS = system: SNB-19 CNS
SN12C renal = system: SN12C renal
OVCAR-5 ovarian = system: OVCAR-5 ovarian
SF-268 CNS = system: SF-268 CNS
KM12 colon = system: KM12 colon
RPMI-8226 leukemia = system: RPMI-8226 leukemia
DMS 273 small cell lung = system: DMS 273 small cell lung
NCI-H522 lung = system: NCI-H522 lung
A549 NSCLC = system: A549 NSCLC
HL-60(TB) leukemia = system: HL-60(TB) leukemia
SK-OV-3 ovarian = system: SK-OV-3 ovarian
CCRF-CEM leukemia = system: CCRF-CEM leukemia
XF 498 CNS = system: XF 498 CNS
M14 melanoma = system: M14 melanoma
M19-MEL melanoma = system: M19-MEL melanoma
OVCAR-8 ovarian = system: OVCAR-8 ovarian
U251 CNS = system: U251 CNS
SK-MEL-2 melanoma = system: SK-MEL-2 melanoma
RXF-631 renal = system: RXF-631 renal
DMS 114 small cell lung = system: DMS 114 small cell lung
SNB-78 CNS = system: SNB-78 CNS
SNB-75 CNS = system: SNB-75 CNS
NCI-H23 lung = system: NCI-H23 lung
LXFL 529 NSCLC = system: LXFL 529 NSCLC
TK-10 renal = system: TK-10 renal
MOLT-4 leukemia = system: MOLT-4 leukemia
OVCAR-3 ovarian = system: OVCAR-3 ovarian
HOP-18 NSCLC = system: HOP-18 NSCLC
786-0 renal = system: 786-0 renal
ACHN renal = system: ACHN renal
NCI-H460 lung = system: NCI-H460 lung
SF-539 CNS = system: SF-539 CNS
CAKI-1 renal = system: CAKI-1 renal
HCT-116 colon = system: HCT-116 colon
UO-31 renal = system: UO-31 renal
HOP-92 NSCLC = system: HOP-92 NSCLC
UACC-257 melanoma = system: UACC-257 melanoma
SW-620 colon = system: SW-620 colon
UACC-62 melanoma = system: UACC-62 melanoma
SK-MEL-28 melanoma = system: SK-MEL-28 melanoma
LOX IMVI melanoma = system: LOX IMVI melanoma
OVCAR-4 ovarian = system: OVCAR-4 ovarian

CCOC(=O)C1C(c2ccccc2)=C(c2ccccc2)C(c2ccccc2)=C1c1ccccc1
TGI (MALME-3M melanoma): > 91.7 µM
TGI (RXF 393 renal): 40.4 µM
TGI (A498 renal): 57.1 µM
TGI (COLO 205 colon): > 100 µM
TGI (KM20L2 colon): > 100 µM
TGI (EKVX NSCLC): > 100 µM
TGI (SK-MEL-5 melanoma): > 100 µM
TGI (DLD-1 colon): > 100 µM
TGI (HCC-2998 colon): > 100 µM
TGI (HT29 colon): > 100 µM
TGI (SF-295 CNS): 69.8 µM
TGI (HOP-62 NSCLC): 33.3 µM
TGI (SR leukemia): > 100 µM
TGI (HCT-15 colon): > 100 µM
TGI (K-562 leukemia): > 100 µM
TGI (NCI-H226 lung): > 60.1 µM
TGI (IGROV1 ovarian): > 70.2 µM
TGI (SNB-19 CNS): 40.3 µM
TGI (SN12C renal): > 83.6 µM
TGI (OVCAR-5 ovarian): > 100 µM
TGI (SF-268 CNS): > 100 µM
TGI (KM12 colon): > 100 µM
TGI (RPMI-8226 leukemia): > 100 µM
TGI (DMS 273 small cell lung): > 100 µM
TGI (NCI-H522 lung): 98.1 µM
TGI (A549 NSCLC): 97.4 µM
TGI (HL-60(TB) leukemia): > 100 µM
TGI (SK-OV-3 ovarian): 49 µM
TGI (CCRF-CEM leukemia): > 100 µM
TGI (XF 498 CNS): > 56.8 µM
TGI (M14 melanoma): > 100 µM
TGI (M19-MEL melanoma): > 100 µM
TGI (OVCAR-8 ovarian): > 72.7 µM
TGI (U251 CNS): 55.7 µM
TGI (SK-MEL-2 melanoma): > 82.3 µM
TGI (RXF-631 renal): > 100 µM
TGI (DMS 114 small cell lung): > 100 µM
TGI (SNB-78 CNS): > 91.6 µM
TGI (SNB-75 CNS): 32.1 µM
TGI (NCI-H23 lung): > 100 µM
TGI (LXFL 529 NSCLC): > 100 µM
TGI (TK-10 renal): 57.4 µM
TGI (MOLT-4 leukemia): > 100 µM
TGI (OVCAR-3 ovarian): 68.7 µM
TGI (HOP-18 NSCLC): 82.4 µM
TGI (786-0 renal): 55.8 µM
TGI (ACHN renal): > 82.2 µM
TGI (NCI-H460 lung): > 100 µM
TGI (SF-539 CNS): 91 µM
TGI (CAKI-1 renal): > 100 µM
TGI (HCT-116 colon): > 76.6 µM
TGI (UO-31 renal): > 93.7 µM
TGI (HOP-92 NSCLC): 50.7 µM
TGI (UACC-257 melanoma): > 100 µM
TGI (SW-620 colon): > 100 µM
TGI (UACC-62 melanoma): 60.9 µM
TGI (SK-MEL-28 melanoma): > 100 µM
TGI (LOX IMVI melanoma): > 100 µM
TGI (OVCAR-4 ovarian): > 100 µM

CC(C)=CCCC(C)[C@H]1CC(O)C2(C)C3=CCC4C(C)(C)[C@@H](O)CC[C@]4(C)C3=CC[C@]12C (stereo not given in full)
TGI (MALME-3M melanoma): 34.2 µM
TGI (RXF 393 renal): 7.59 µM
TGI (A498 renal): 16.3 µM
TGI (COLO 205 colon): 20.7 µM
TGI (KM20L2 colon): 93.6 µM
TGI (EKVX NSCLC): > 100 µM
TGI (SK-MEL-5 melanoma): > 100 µM
TGI (DLD-1 colon): 27.1 µM
TGI (HT29 colon): 14.6 µM
TGI (SF-295 CNS): 5.91 µM
TGI (HOP-62 NSCLC): 18.9 µM
TGI (SR leukemia): 44.2 µM
TGI (HCT-15 colon): 45.7 µM
TGI (K-562 leukemia): 26.6 µM
TGI (NCI-H226 lung): 15.1 µM
TGI (IGROV1 ovarian): 48.7 µM
TGI (SNB-19 CNS): 30.2 µM
TGI (SN12C renal): 12.3 µM
TGI (OVCAR-5 ovarian): > 100 µM
TGI (SF-268 CNS): 28.3 µM
TGI (KM12 colon): > 100 µM
TGI (RPMI-8226 leukemia): 34.4 µM
TGI (DMS 273 small cell lung): 3.74 µM
TGI (NCI-H522 lung): 16.2 µM
TGI (A549 NSCLC): 10.6 µM
TGI (HL-60(TB) leukemia): 35 µM
TGI (SK-OV-3 ovarian): 24.8 µM
TGI (CCRF-CEM leukemia): 25.8 µM
TGI (XF 498 CNS): 25.1 µM
TGI (M14 melanoma): 18.5 µM
TGI (M19-MEL melanoma): 13.8 µM
TGI (OVCAR-8 ovarian): 3.79 µM
TGI (U251 CNS): 6.54 µM
TGI (SK-MEL-2 melanoma): 79.5 µM
TGI (RXF-631 renal): 34 µM
TGI (DMS 114 small cell lung): 33.5 µM
TGI (SNB-78 CNS): 32.4 µM
TGI (SNB-75 CNS): 21.3 µM
TGI (NCI-H23 lung): 14.9 µM
TGI (LXFL 529 NSCLC): 5.09 µM
TGI (TK-10 renal): 50.1 µM
TGI (MOLT-4 leukemia): 42.4 µM
TGI (OVCAR-3 ovarian): 13.1 µM
TGI (HOP-18 NSCLC): 31.6 µM
TGI (786-0 renal): 3.52 µM
TGI (NCI-H460 lung): 4.92 µM
TGI (SF-539 CNS): 6.58 µM
TGI (CAKI-1 renal): 24.4 µM
TGI (HCT-116 colon): 6.22 µM
TGI (UO-31 renal): 41.6 µM
TGI (HOP-92 NSCLC): 9.53 µM
TGI (UACC-257 melanoma): > 100 µM
TGI (SW-620 colon): 14.7 µM
TGI (UACC-62 melanoma): 15.1 µM
TGI (LOX IMVI melanoma): 1.07 µM
TGI (OVCAR-4 ovarian): 6.48 µM
